Measured values from US20080295189A1, “Construction of Arterial Occlusive Disease Animal Model” (JAPAN HEALTH SCIENCES FOUNDATION, priority 2004, published 2008).

Tested on: blood of a crab-eating macaque
Assay: Degree of coagulation of blood with coagulating agents (autologous blood clot formation)
Conditions: blood in catheter, incubated 24 hours at 37° C., versus blood coagulated alone
Protocol: As coagulating agents, ADP and thrombin were used to examine the degree of coagulation. ADP was used at concentrations of 30 and 100 μg/ml (without thrombin at both concentrations), and thrombin at concentrations of 0.5 and 10% (w/v) (without ADP at both concentrations). Blood was drawn from the ventral tail artery of a crab-eating macaque, and was placed into a catheter with or without adding a coagulating agent, incubated for 24 hours at 37° C., and then pushed out to observe the condition of coagulation. As control was used a sample to which neither of the coagulating agents was added (blood which was coagulated alone). The results were shown in the left panel of FIG. 3. […] Next, a blood clot which was obtained by incubating blood for 24 hours at 37° C. with 100 μg of ADP and 10% (w/v) of thrombin was immersed in a povidone-iodine solution, followed by X-ray photography. As shown in the right panel of FIG. 3, there was observed a shade corresponding to the blood clot, allowing one to identify the location of a blood clot be means of an X-ray photographic apparatus.

Compound	condition of coagulation (ADP 30 and 100 μg/ml without thrombin)	condition of coagulation (thrombin 0.5 and 10% (w/v) without ADP)
Nc1ncnc2c1ncn2[C@@H]1O[C@H](COP(=O)(O)OP(=O)(O)O)[C@@H](O)[C@H]1O [ADP, adenosine diphosphate]	the higher concentration of ADP, the better coagulation took place	
Thrombin		comparable coagulation at both 0.5 and 10% (w/v)
